≈ marks a conversion by molar mass, not a printed value.
Assays:
Assay in all cases: ≥ marks a high value that may be exact or a test limit, other limits are often not marked, values filed in µg/mL are converted to µM
[1] = system: Bacillus subtilis KCTC 1918
[2] = system: Candida albicans TIMM 1768
[3] = system: Proteus vulgaris KCTC 2433
[4] = system: Saccharomyces cerevisiae KCTC 7296
[5] = system: Salmonella typhimurium KCTC 1926
[6] = system: Staphylococcus aureus KCTC 1621
[7] = system: Trichosporon beigelii KCTC 7707
[8] = system: Acinetobacter baumannii NM35
[9] = system: Acinetobacter baumannii NM8
[10] = system: Candida albicans ATCC 90028
[11] = system: Enterococcus faecalis ATCC 29212
[12] = system: Escherichia coli ATCC 25726
[13] = system: Klebsiella pneumoniae ATCC 700603
[14] = system: Pseudomonas aeruginosa ATCC 27853
[15] = system: Staphylococcus aureus 127/08
[16] = system: Staphylococcus aureus 145/08
[17] = system: Staphylococcus epidermidis RP62A/1
[18] = system: Staphylococcus epidermidis RP62A
[19] = system: Staphylococcus epidermidis T37/8
[20] = system: Staphylococcus epidermidis T6/19
[21] = system: Stenotrophomonas maltophilia B32/1
[22] = system: Stenotrophomonas maltophilia B5/5
[23] = system: Stenotrophomonas maltophilia U8908
[24] = system: Bacillus subtilis IFO 3513
[25] = system: Escherichia coli IFO 12734
Escherichia coli JM109 = system: Escherichia coli JM109
Escherichia coli W160-37 = system: Escherichia coli W160-37
[26] = system: Micrococcus luteus ATCC 9341
[27] = system: Saccharomyces cerevisiae PEP 4/3l
[28] = system: Staphylococcus aureus ATCC 8530
[29] = system: Staphylococcus aureus IFO 12732
[30] = system: Aspergillus flavus KCTC 7375
[31] = system: Bacillus megaterium KCTC 1096
[32] = system: Candida albicans KCTC 7121
[33] = system: Escherichia coli KCTC 1682
[34] = system: Fusarium oxysporum KCTC 6084
Proteus vulgaris = system: Proteus vulgaris
[35] = system: Pseudomonas aeruginosa KCTC 1637
[36] = system: Trichosporon beigelii KCTC 7251
[37] = system: Candida albicans ATCC 37092
[38] = system: Escherichia coli ATCC 25922
Escherichia coli HB101 = system: Escherichia coli HB101
Escherichia coli ML-35 = system: Escherichia coli ML-35
[39] = system: Salmonella enterica subsp. enterica serovar Typhimurium ATCC 14028
[40] = system: Serratia marcescens ATCC 8100
[41] = system: Staphylococcus aureus ATCC 25923
[42] = system: Staphylococcus aureus ATCC 29213

An MIC [1] of 6.25 µM (≈ 14.4 µg/mL), an MIC [2] of no less than 50 µM and an MIC [3] of 6.25 µM (≈ 14.4 µg/mL) were found for `CC[C@H](C)[C@H](NC(=O)CNC(=O)[C@H](CC(C)C)NC(=O)[C@H](CCCN=C(N)N)NC(=O)[C@H](CCCCN)NC(=O)[C@H](Cc1ccccc1)NC(=O)[C@@H](NC(=O)[C@H](CCCCN)NC(=O)[C@H](Cc1c[nH]c2ccccc12)NC(=O)[C@H](C)N)C(C)C)C(=O)NCC(=O)N[C@@H](C)C(=O)N[C@H](C(=O)N[C@@H](CC(C)C)C(=O)N[C@@H](Cc1c[nH]c2ccccc12)C(=O)N[C@H](C(=O)N[C@@H](CC(C)C)C(=O)N[C@H](C(=O)N[C@@H](Cc1c[nH]c2ccccc12)C(=O)NCC(=O)O)[C@@H](C)O)C(C)C)C(C)C` [AWKVFKRLGIGAVLWVLTWG] in this work. It also gave an MIC [4] of no less than 50 µM, an MIC [5] of 0.78 µM (≈ 1.79 µg/mL) and an MIC [6] of 6.25 µM (≈ 14.4 µg/mL). For the same molecule, the MIC [7] was no less than 50 µM.
An MIC [8] of 10 µM (≈ 28.7 µg/mL), an MIC [9] of 20 µM (≈ 57.5 µg/mL) and an MIC [10] of no less than 80 µM were found for `CC[C@H](C)[C@H](NC(=O)CN)C(=O)N[C@@H](Cc1ccccc1)C(=O)N1CCC[C@H]1C(=O)N[C@H](C(=O)N[C@@H](Cc1ccccc1)C(=O)N[C@@H](C)C(=O)N[C@@H](CCCCN)C(=O)N[C@@H](CC(C)C)C(=O)N[C@@H](CC(C)C)C(=O)NCC(=O)N[C@@H](CCCCN)C(=O)N[C@H](C(=O)N[C@H](C(=O)N[C@@H](CCCCN)C(=O)N[C@H](C(=O)N[C@@H](C)C(=O)N[C@@H](CO)C(=O)N[C@@H](CO)C(=O)N[C@@H](CC(C)C)C(=O)N[C@H](C(=O)N[C@@H](CO)C(=O)N[C@@H](CCCCN)C(=O)NCC(=O)N[C@@H](CCCN=C(N)N)C(=O)N[C@H](C(=O)N[C@@H](CCC(=O)O)C(=O)O)[C@@H](C)O)[C@@H](C)CC)C(C)C)[C@@H](C)CC)C(C)C)[C@@H](C)CC` [GIFPIFAKLLGKVIKVASSLISKGRTE] in this work. For the same molecule, the MIC [11] was 20 µM (≈ 57.5 µg/mL), the MIC [12] was no less than 80 µM and the MIC [13] was greater than 80 µM. For the same molecule, the MIC [14] was greater than 80 µM, the MIC [15] was 5 µM (≈ 14.4 µg/mL) and the MIC [16] was 10 µM (≈ 28.7 µg/mL). For the same molecule, the MIC [17] was 2.5 µM (≈ 7.18 µg/mL), the MIC [18] was 5 µM (≈ 14.4 µg/mL) and the MIC [19] was 10 µM (≈ 28.7 µg/mL). For the same molecule, the MIC [20] was 5 µM (≈ 14.4 µg/mL), the MIC [21] was 10 µM (≈ 28.7 µg/mL) and the MIC [22] was no less than 40 µM. The MIC [23] was 20 µM (≈ 57.5 µg/mL).
An MIC [24] of 7.3 µM (≈ 12.5 µg/mL), an MIC [25] of no less than 58.4 µM and an MIC (Escherichia coli JM109) of 8 µM (≈ 13.7 µg/mL) were found for `CC[C@H](C)[C@H](N)C(=O)N[C@@H](CC(C)C)C(=O)N1CCC[C@H]1C(=O)N[C@@H](Cc1ccccc1)C(=O)N[C@@H](CCCCN)C(=O)N[C@@H](Cc1ccccc1)C(=O)N1CCC[C@H]1C(=O)N[C@@H](Cc1ccccc1)C(=O)N[C@@H](Cc1ccccc1)C(=O)N1CCC[C@H]1C(=O)N[C@@H](Cc1ccccc1)C(=O)N[C@@H](CCCN=C(N)N)C(=O)N[C@@H](CCCN=C(N)N)C(N)=O` [ILPFKFPFFPFRR] in this work. The MIC (Escherichia coli W160-37) was 16 µM (≈ 27.4 µg/mL), the MIC [26] was 0.4 µM (≈ 0.684 µg/mL) and the MIC [27] was 13.1 µM (≈ 22.3 µg/mL). It also gave an MIC [28] of 1.65 µM (≈ 2.83 µg/mL) and an MIC [29] of 3.65 µM (≈ 6.25 µg/mL).
An MIC [30] of no less than 100 µM, an MIC [31] of 3.12 µM (≈ 5.93 µg/mL) and an MIC [1] of 0.78 µM (≈ 1.48 µg/mL) were found for `CC[C@H](C)[C@H](NC(=O)[C@H](CCCCN)NC(=O)[C@H](CCCCN)NC(=O)[C@H](Cc1ccccc1)NC(=O)[C@H](CC(C)C)NC(=O)[C@H](CCCCN)NC(=O)[C@H](Cc1c[nH]c2ccccc12)NC(=O)[C@@H](N)CCCCN)C(=O)N1CCC[C@H]1C(=O)N[C@@H](CCCCN)C(=O)N[C@@H](Cc1ccccc1)C(=O)N[C@@H](CC(C)C)C(=O)N[C@@H](Cc1cnc[nH]1)C(=O)N[C@@H](CC(C)C)C(=O)N[C@@H](C)C(N)=O` [KWKLFKKIPKFLHLA] in this work. For the same molecule, the MIC [32] was no less than 50 µM, the MIC [33] was 8.84 µM (≈ 16.8 µg/mL) and the MIC [34] was no less than 100 µM. It also gave an MIC (Proteus vulgaris) of 3.12 µM (≈ 5.93 µg/mL), an MIC [35] of 6.25 µM (≈ 11.9 µg/mL) and an MIC [6] of 6.25 µM (≈ 11.9 µg/mL). For the same molecule, the MIC [36] was no less than 50 µM.
An MIC [37] of 28.8 µM (≈ 55.3 µg/mL), an MIC [38] of 45.3 µM (≈ 86.9 µg/mL) and an MIC (Escherichia coli HB101) of 16 µM (≈ 30.7 µg/mL) were found for `CC[C@H](C)[C@H](NC(=O)[C@H](CCCN=C(N)N)NC(=O)[C@@H](N)CCCN=C(N)N)C(=O)N[C@@H](CCCN=C(N)N)C(=O)N1CCC[C@H]1C(=O)N[C@@H](CCCN=C(N)N)C(=O)N1CCC[C@H]1C(=O)N1CCC[C@H]1C(=O)N[C@@H](CCCN=C(N)N)C(=O)N[C@@H](CC(C)C)C(=O)N1CCC[C@H]1C(=O)N[C@@H](CCCN=C(N)N)C(=O)N1CCC[C@H]1C(=O)N[C@@H](CCCN=C(N)N)C(=O)N1CCC[C@H]1C(=O)O` [RRIRPRPPRLPRPRP] in this work. For the same molecule, the MIC (Escherichia coli ML-35) was no less than 128 µM, the MIC [39] was 128 µM (≈ 246 µg/mL) and the MIC [40] was no less than 128 µM. It also gave an MIC [41] greater than 128 µM and an MIC [42] greater than 500 µM.

From DBAASP
